Results reported in patent US20220064127A1, “PLATELET AGGREGATION INHIBITOR, PREPARATION AND USES THEREOF” (SHENYANG HINEWY PHARMACEUTICAL TECHNOLOGY CO., LTD., priority 2020, published 2022).

system: ADP-Induced Platelet Aggregation; assay: Inhibition of ADP-induced platelet aggregation in rabbit platelet-rich plasma (microplate method); assay type: cell-based; settings: Oryctolagus cuniculus, Platelet; 30 μM, rabbit PRP, inducer ADP; read-out: Inhibition rate of target compounds on platelet aggregation at 30 μM
Description: Example 62 Investigation on Inhibition of ADP-Induced Platelet Aggregation in Rabbit
A blood sample was collected from ear vein of a healthy male rabbit, added with 3.8% sodium citrate for anticoagulation and then centrifuged at 800 r/min for 10 min to prepare platelet-rich plasma (PRP) and at 3,000 r/min for 10 min to prepare platelet-poor plasma (PPP). The investigation on the plasma should be performed within 0.5-3 h after the preparation.
2. Determination of Platelet Aggregation by Microplate Method
The drugs to be tested were weighed and added with an appropriate amount of DMSO to prepare a series of 10 mM stock solutions, which were respectively diluted to prepare 10× stock solutions with normal saline for further use.
Several wells of a microplate were selected as test wells, which were added with 135 μL of PRP and then respectively added with 15 μL of the 10× stock solutions. A well in which 135 μL of PRP and 15 μL of normal saline were added was used as the vehicle control, and a well in which 135 μL of PPP and 15 μL of normal saline were added was used as the blank control. Duplicate wells were set for each test well. The plate was shaken, incubated at 37° C. for 5 min, and then measured for A0 at 655 nm. Subsequently, the microplate was added with 15 μL of an inducer […] (ADP) working solution (25 μmol/L) in each well, incubated at 37° C. under shaking and measured at 655 nm for A1, where the incubation time was determined according to the time in the pre-experiment when the maximum aggregation appeared. The platelet aggregation rate (AR) and platelet aggregation inhibition rate (AIR) were calculated according to the following formulas:
AR=(1−ARtest sample/ARcontrol)

Q: How did the inhibition at 30 µM turn out when `CCOC(=O)c1c(C)nc(-c2ccccc2)n1OC` [LY-25, ethyl 4-methyl-2-phenyl-1-methoxy-1H-imidazole-5-carboxylate] was run?
A: Its inhibition at 30 µM is 24.1%.

Q: With `CCOC(=O)c1c(C)nc(-c2cccc(C#N)c2)n1OCC(N)=O` [LY-26h, ethyl 1-(2-amino-2-oxoethoxy)-2-(3-cyanophenyl)-4-methyl-1H-imidazole-5-carboxylate] as the molecule, how does the inhibition at 30 µM read?
A: Its inhibition at 30 µM is 18.9%.

Q: How did the inhibition at 30 µM turn out when `CCOC(=O)c1c(C)nc(-c2cccc(C#N)c2)n1OCCC(=O)O` [LY-26i, 3-{[2-(3-cyanophenyl)-5-(ethoxycarbonyl)-4-methyl-1H-imidazol-1-yl]oxy}propionic acid] was run?
A: Its inhibition at 30 µM is 24.4%.

same assay, conditions: Oryctolagus cuniculus, Platelet; rabbit PRP, inducer ADP, absorbance 655 nm; read-out: IC50 (Mean ± SE), ADP-induced platelet aggregation

Q: For `CCOC(=O)c1c(C)nc(-c2ccc(OCc3ccccc3)c(C#N)c2)n1O` [LY-7b, ethyl 2-(3-cyano-4-benzyloxy)phenyl-1-hydroxy-4-methyl-1H-imidazole-5-carboxylate], which IC50 is on record?
A: Its IC50 is 19 ± 0.317 µM.

Q: For `CCOC(=O)c1c(C)nc(-c2ccc(OCC(C)C)c(C#N)c2)n1OC(C)=O` [LY-8a, ethyl 1-acetoxy-2-(3-cyano-4-isobutoxyphenyl)-4-methyl-1H-imidazole-5-carboxylate], which IC50 is on record?
A: The IC50 was 5.214 ± 0.0152 µM.

Q: `CCOC(=O)c1c(C)nc(-c2ccc(O)c(C#N)c2)n1O` [LY-8b, ethyl 2-(3-cyano-4-hydroxyphenyl)-1-hydroxy-4-methyl-1H-imidazole-5-carboxylate] was tested. Which IC50 did it give?
A: Its IC50 is 18.3 ± 1.03 µM.

Q: For `CCOC(=O)c1c(C)nc(-c2cccc(C#N)c2)n1O` [LY-10, ethyl 2-(3-cyanophenyl)-1-hydroxy-4-methyl-1H-imidazole-5-carboxylate], which IC50 is on record?
A: The IC50 was 17.6 ± 0.952 µM.

Q: With `Cc1nc(-c2cccc(C#N)c2)n(O)c1C(=O)O` [LY-11, 2-(3-cyanophenyl)-1-hydroxy-4-methyl-1H-imidazole-5-carboxylic acid] as the molecule, how does the IC50 read?
A: Its IC50 is 7.865 ± 0.0365 µM.

Q: With `CCOC(=O)c1c(C)nc(-c2cccc(-c3nnn[nH]3)c2)n1O` [LY-13, ethyl 2-[3-(1H-tetrazol-5-yl)phenyl]-1-hydroxy-4-methyl-1H-imidazole-5-carboxylate] as the molecule, how does the IC50 read?
A: Its IC50 is 21.9 ± 0.865 µM.

Q: How did the IC50 turn out when `CCOC(=O)c1c(C)nc(-c2cccc(-c3noc(=O)[nH]3)c2)n1O` [LY-15, ethyl 1-hydroxy-4-methyl-2-[3-(5-oxo-4,5-dihydro-1,2,4-oxadiazol-3-yl)phenyl]-1H-imidazole-5-carboxylate] was run?
A: The IC50 was 22.1 ± 0.299 µM.

Q: For `CCOC(=O)c1c(-c2ccccc2)nc(-c2cccc(C#N)c2)n1O` [LY-16, ethyl 2-(3-cyanophenyl)-1-hydroxy-4-phenyl-1H-imidazole-5-carboxylate], which IC50 is on record?
A: Its IC50 is 19.87 ± 0.126 µM.

Q: How did the IC50 turn out when `CCOC(=O)c1c(C)nc(-c2ccccc2C#N)n1OC` [LY-19, ethyl 4-methyl-2-(2-cyanophenyl)-1-methoxy-1H-imidazole-5-carboxylate] was run?
A: Its IC50 is 14.86 ± 0.0568 µM.

Q: Which IC50 does the source give for `CCOC(=O)c1c(C)nc(-c2ccc(C#N)cc2)n1OC` [LY-22, ethyl 4-methyl-2-(4-cyanophenyl)-1-methoxy-1H-imidazole-5-carboxylate] here?
A: The IC50 was 13.4 ± 1.03 µM.

Q: `CCOC(=O)c1c(C)nc(-c2cccc(C#N)c2)n1OC` [LY-26a, ethyl 2-(3-cyanophenyl)-1-methoxy-4-methyl-1H-imidazole-5-carboxylate] was tested. Which IC50 did it give?
A: Its IC50 is 9.13 ± 0.346 µM.

Q: `CCOC(=O)c1c(C)nc(-c2cccc(C#N)c2)n1OCC` [LY-26b, ethyl 2-(3-cyanophenyl)-1-ethoxy-4-methyl-1H-imidazole-5-carboxylate] was tested. Which IC50 did it give?
A: The IC50 was 16.5 ± 1.07 µM.

Q: With `CCOC(=O)c1c(C)nc(-c2cccc(C#N)c2)n1OC(C)C` [LY-26c, ethyl 2-(3-cyanophenyl)-1-isopropoxy-4-methyl-1H-imidazole-5-carboxylate] as the molecule, how does the IC50 read?
A: Its IC50 is 6.74 ± 0.326 µM.

Q: With `C=CCOn1c(-c2cccc(C#N)c2)nc(C)c1C(=O)OCC` [LY-26d, ethyl 1-(allyloxy)-2-(3-cyanophenyl)-4-methyl-1H-imidazole-5-carboxylate] as the molecule, how does the IC50 read?
A: The IC50 was 5.856 ± 0.0165 µM.

Q: Which IC50 does the source give for `CCOCCOn1c(-c2cccc(C#N)c2)nc(C)c1C(=O)OCC` [LY-26e, ethyl 2-(3-cyanophenyl)-1-(2-ethoxyethoxy)-4-methyl-1H-imidazole-5-carboxylate] here?
A: The IC50 was 6.25 ± 0.21 µM.

Q: How did the IC50 turn out when `CCOC(=O)c1c(C)nc(-c2cccc(C#N)c2)n1OCCCO` [LY-26f, ethyl 2-(3-cyanophenyl)-1-(3-hydroxypropoxy)-4-methyl-1H-imidazole-5-carboxylate] was run?
A: The IC50 was 11.4 ± 0.213 µM.

Q: With `CCOC(=O)COn1c(-c2cccc(C#N)c2)nc(C)c1C(=O)OCC` [LY-26g, ethyl 2-(3-cyanophenyl)-1-(2-ethoxy-2-oxoethoxy)-4-methyl-1H-imidazole-5-carboxylate] as the molecule, how does the IC50 read?
A: The IC50 was 6.8 ± 0.152 µM.

Q: For `CCOC(=O)c1c(C)nc(-c2cccc(C#N)c2)n1OCc1ccncc1` [LY-26j, ethyl 2-(3-cyanophenyl)-4-methyl-1-(pyridin-4-methoxy)-1H-imidazole-5-carboxylate], which IC50 is on record?
A: Its IC50 is 6.196 ± 0.0526 µM.

Q: Which IC50 does the source give for `CCOC(=O)c1c(C)nc(-c2cccc(C#N)c2)n1OCc1ccccc1` [LY-26k, ethyl 1-(benzyloxy)-2-(3-cyanophenyl)-4-methyl-1H-imidazole-5-carboxylate] here?
A: Its IC50 is 5.93 ± 0.265 µM.

Q: For `CCOC(=O)c1c(C)nc(-c2cccc(C#N)c2)n1OCc1ccccc1F` [LY-26l, ethyl 2-(3-cyanophenyl)-1-[(2-fluorobenzyl)oxy]-4-methyl-1H-imidazole-5-carboxylate], which IC50 is on record?
A: Its IC50 is 5.88 ± 0.196 µM.

Q: Which IC50 does the source give for `CCOC(=O)c1c(C)nc(-c2cccc(C#N)c2)n1OCc1cccc(F)c1` [LY-26m, ethyl 2-(3-cyanophenyl)-1-[(3-fluorobenzyl)oxy]-4-methyl-1H-imidazole-5-carboxylate] here?
A: The IC50 was 22.4 ± 1.36 µM.

Q: For `CCOC(=O)c1c(C)nc(-c2cccc(C#N)c2)n1OCc1ccc(F)cc1` [LY-26n, ethyl 2-(3-cyanophenyl)-1-[(4-fluorobenzyl)oxy]-4-methyl-1H-imidazole-5-carboxylate], which IC50 is on record?
A: The IC50 was 5.88 ± 0.196 µM.

Q: With `CCOC(=O)c1c(C)nc(-c2cccc(C#N)c2)n1OCc1ccccc1Cl` [LY-26o, ethyl 1-[(2-chlorobenzyl)oxy]-2-(3-cyanophenyl)-4-methyl-1H-imidazole-5-carboxylate] as the molecule, how does the IC50 read?
A: Its IC50 is 8.71 ± 0.242 µM.

Q: With `CCOC(=O)c1c(C)nc(-c2cccc(C#N)c2)n1OCc1cccc(Cl)c1` [LY-26p, ethyl 1-[(3-chlorobenzyl)oxy]-2-(3-cyanophenyl)-4-methyl-1H-imidazole-5-carboxylate] as the molecule, how does the IC50 read?
A: Its IC50 is 19.4 ± 0.355 µM.

Q: `CCOC(=O)c1c(C)nc(-c2cccc(C#N)c2)n1OCc1ccc(Cl)cc1` [LY-26q, ethyl 1-[(4-chlorobenzyl)oxy]-2-(3-cyanophenyl)-4-methyl-1H-imidazole-5-carboxylate] was tested. Which IC50 did it give?
A: The IC50 was 6.83 ± 0.265 µM.

Q: For `CCOC(=O)c1c(C)nc(-c2cccc(C#N)c2)n1OCc1ccc(Br)cc1` [LY-26r, ethyl 1-[(4-bromobenzyl)oxy]-2-(3-cyanophenyl)-4-methyl-1H-imidazole-5-carboxylate], which IC50 is on record?
A: The IC50 was 24.6 ± 0.895 µM.

Q: How did the IC50 turn out when `CCOC(=O)c1c(C)nc(-c2cccc(C#N)c2)n1OCc1ccc(C)cc1` [LY-26s, ethyl 2-(3-cyanophenyl)-4-methyl-1-[(4-methylbenzyl)oxy]-1H-imidazole-5-carboxylate] was run?
A: The IC50 was 6.31 ± 0.399 µM.

Q: How did the IC50 turn out when `CCOC(=O)c1c(C)nc(-c2cccc(C#N)c2)n1OCc1ccc(OC)cc1` [LY-26t, ethyl 2-(3-cyanophenyl)-1-[(4-methoxybenzyl)oxy]-4-methyl-1H-imidazole-5-carboxylate] was run?
A: Its IC50 is 6.83 ± 0.0856 µM.

Q: With `CCOC(=O)c1c(C)nc(-c2cccc(C#N)c2)n1OCc1ccc(C(=O)OC)cc1` [LY-26u, ethyl 2-(3-cyanophenyl)-1-{[4-(methoxycarbonyl)benzyl]oxy}-4-methyl-1H-imidazole-5-carboxylate] as the molecule, how does the IC50 read?
A: Its IC50 is 9.47 ± 0.856 µM.

same assay, conditions: rabbit PRP, inducer ADP, absorbance 655 nm; read-out: IC50 (Mean ± SE), ADP-induced platelet aggregation

Q: Which IC50 does the source give for `CCOC(=O)c1c(C)nc(-c2ccc(OCC(C)C)c(C#N)c2)n1O` [LY-7a, ethyl 2-(3-cyano-4-isobutyloxy)phenyl-1-hydroxy-4-methyl-1H-imidazole-5-carboxylate] here?
A: Its IC50 is 16.8 ± 0.874 µM.
